From paper PMC12166061, “Crystallographic fragment screening reveals ligand hotspots in TRIM21 PRY-SPRY domain” (Communications Chemistry, 2025)
Read-outs that look alike come from different tables or passages of the source. Values belong to the compound of their own block, whether it stands above or below them.

Key:
[1] = molecular target: T1, full-length hTRIM21 with C-terminal NanoLuc fusion (Homo sapiens, UniProt P19474); assay: cell-based; conditions: tracer AL244 (2)
Procedure: (§4) Full-length hTRIM21 with N- or C-terminal NanoLuc fusion was transfected into HEK293T cells (ATCC) using Fugene 4K (Promega, Cat. No. E5911) transfection reagent according to the manufacturer’s instructions. Following protein expression for 24 h, cells were split again in OptiMEM medium (phenol red free, Life Technologies) to a final amount of 2 × 10^5 cells per mL and 10 µL per well were distributed in a 384 well plate. Next, tracer AL244 (2) was added in concentrations from 3 µM to 6 nM. […] Then, cells were permeabilized through the addition of 25 nL Digitonin (0.05 µg µL^−1). Following another 5-min incubation, filtered luminescence was measured again. The data acquired in the tracer titration was converted into mBRET units (Fluorescence intensity at 610 nm / Luminescence intensity at 450 nm) × 1000 and graphed using Graph-Pad Prism v.9 software.
(§5) A 384-well plate with cells expressing hTRIM21-NLuc was prepared as described above. […] Then, cells were permeabilized with Digitonin and, following 5 min of incubation, filtered luminescence was measured. The data acquired in the competition experiments were converted to mBRET units, then normalized to the positive and negative control and graphed using Graph-Pad Prism v.9 software using a normalized three-parameter curve fit using the following equation: y = 100/[1 + 10(x − logIC50)].

[2] = molecular target: T1, full-length hTRIM21 with C-terminal NanoLuc fusion; conditions: for cell permeability: inferred from intact versus lysed NanoBRET; for tracer displacement: compound at 500 µM, NanoBRET
Procedure: as §4, §5

[3] = molecular target: T2, human TRIM21 PRY-SPRY domain (Homo sapiens, UniProt P19474); assay: Differential scanning fluorimetry (DSF, ΔTm), human TRIM21 PRY-SPRY domain; assay type: binding
T2 construct: Human TRIM21 PRY-SPRY domain (residues V287-I465, UniProt-ID: P19474); His6 (N, cleaved yes); SUMO (N, cleaved yes); made in house; host or cells: E. coli BL21(DE3)
Procedure: (§1) Briefly, recombinant murine and human TRIM21 PRY-SPRY domain at a concentration of 8 μM were mixed with 2 mM compound in their respective SEC buffer. SYPRO Orange (5000×, Invitrogen) was added as a fluorescence probe (1 µl per mL). Subsequently, temperature-dependent protein unfolding profiles were measured using the QuantStudio™ 5 realtime PCR machine (Thermo Fisher). Excitation and emission filters were set to 465 nm and 590 nm, respectively. The temperature was raised with a step rate of 3 °C per minute. Data points were analysed with the internal software (Thermal Shift SoftwareTM Version 1.4, Thermo Fisher) using the Boltzmann equation to determine the inflection point of the transition curve.

[4] = molecular target: T3, murine TRIM21 PRY-SPRY domain (Mus musculus, UniProt Q62191); assay: Differential scanning fluorimetry (DSF, ΔTm), mouse TRIM21 PRY-SPRY domain; assay type: binding
T3 construct: mouse TRIM21 PRY-SPRY domain (residues V291-M470, UniProt-ID: Q62191); made in house; host or cells: E. coli BL21(DE3)
T3 sequence (Q62191 291-470): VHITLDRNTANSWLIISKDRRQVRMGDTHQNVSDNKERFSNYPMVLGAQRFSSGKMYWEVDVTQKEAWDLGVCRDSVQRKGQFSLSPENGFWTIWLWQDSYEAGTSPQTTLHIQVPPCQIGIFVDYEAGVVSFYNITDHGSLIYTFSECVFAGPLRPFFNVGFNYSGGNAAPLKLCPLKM
Procedure: as §1

His-mTRIM21 PRYSPRY = molecular target: T4, His-mTRIM21 PRYSPRY (Mus musculus, UniProt Q62191); assay: SPR fragment screening and dose response, mouse TRIM21 PRY-SPRY; assay type: binding
T4 construct: mouse TRIM21 PRY-SPRY domain (residues V291-M470, UniProt-ID: Q62191); made in house; host or cells: E. coli BL21(DE3)
T4 sequence (Q62191 291-470): T3 sequence (Q62191 291-470)
Procedure: (§2) His-mTRIM21 PRYSPRY and His-SUMO-hTRIM21 PRY-SPRY were immobilized onto flow channels (FC) FC2, FC3, and FC4 of a Series S sensor chip NTA (Cytiva). […] Proteins (10–20 µg mL^−1 in HBS-P+) were injected at 10 µL min^−1 to achieve response levels of 3500–4300 RU for mTRIM21 and 3600–4000 RU for hTRIM21. Flow channel 1 (FC1) was used as a reference surface. Surface deactivation and nickel stripping were achieved using 1 M ethanolamine and 350 mM ethylenediaminetetraacetic acid (EDTA), respectively.
(§3) Fragment screening was conducted by injecting 500 µM fragments diluted in running buffer (HBS-P+ with 1 mM TCEP and 2% (v/v) dimethyl sulfoxide (DMSO)) over all flow-channels for 30 s at 30 µL/min^−1. To account for surface drift, 50 µM of a control compound (Suramin) was injected every 15 fragment injections, and blank injections were performed every 5 fragments. Responses were analyzed by blank subtraction, reference subtraction (FC1), solvent correction, molecular weight adjustment, and drift correction using Biacore T200 Evaluation Software v3.2.1. The binding threshold for fragment hits was set based on the Suramin-binding response level.
The data was solvent-corrected, reference-subtracted (FC1), and blank-subtracted using the T200 Evaluation Software v3.2.1. Sensorgrams were subsequently replotted using Graphpad v.9 software.

[5] = molecular target: T5, His-SUMO-hTRIM21 PRY-SPRY (Homo sapiens, UniProt P19474); assay: SPR fragment screening, human TRIM21 PRY-SPRY; assay type: binding
T5 construct: Human TRIM21 PRY-SPRY domain (residues V287-I465, UniProt-ID: P19474); made in house; host or cells: E. coli BL21(DE3)
Procedure: as §2, §3

TRIM21 [6] = conditions: human TRIM21; read-out: affinity; cited from earlier work
TRIM21 [7] = conditions: mouse TRIM21; read-out: affinity; cited from earlier work
TRIM21 PRY-SPRY domain = assay: DSF ΔTm of control suramin, species not stated; assay type: binding; conditions: at the screening concentration
Procedure: as §1

[8] = single dose 500 µM fragment, relative response, suramin reference threshold 100 relative RU

T2 sequence (P19474 287-465): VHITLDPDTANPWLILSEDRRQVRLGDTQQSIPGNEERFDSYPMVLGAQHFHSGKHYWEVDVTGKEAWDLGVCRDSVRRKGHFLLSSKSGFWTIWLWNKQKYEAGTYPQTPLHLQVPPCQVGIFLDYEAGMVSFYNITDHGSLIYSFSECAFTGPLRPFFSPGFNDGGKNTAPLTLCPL
T1 sequence (P19474 whole entry, the tested form may be a part): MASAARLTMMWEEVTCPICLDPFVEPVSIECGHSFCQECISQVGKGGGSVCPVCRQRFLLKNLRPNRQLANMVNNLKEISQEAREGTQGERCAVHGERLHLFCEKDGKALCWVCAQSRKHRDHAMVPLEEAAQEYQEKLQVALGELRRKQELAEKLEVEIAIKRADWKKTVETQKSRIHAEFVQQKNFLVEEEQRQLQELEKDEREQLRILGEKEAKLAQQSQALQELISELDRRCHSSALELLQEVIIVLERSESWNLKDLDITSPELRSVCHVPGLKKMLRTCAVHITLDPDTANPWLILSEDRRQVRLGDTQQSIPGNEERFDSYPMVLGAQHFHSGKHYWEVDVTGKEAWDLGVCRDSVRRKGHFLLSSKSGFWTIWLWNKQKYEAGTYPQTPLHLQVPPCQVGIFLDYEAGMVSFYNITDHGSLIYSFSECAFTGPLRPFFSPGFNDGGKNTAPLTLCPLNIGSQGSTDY
T5 sequence (P19474 287-465): as the sequence (P19474 287-465) above

EC50 ([1]; NanoBRET EC50 (intact), intact (live) HEK293T cells): 0.197 µM
EC50 ([1]; NanoBRET EC50 (lysed), permeabilized (lysed mode, digitonin) cells): 0.297 µM
cell permeability [2]: high cell permeability
SMILES: CSc1cc(F)ccc1-c1ccc(C(=O)NCC2CCCCC2)c(S(C)(=O)=O)c1 [AL236 (1)]

EC50 ([1]; NanoBRET EC50 (intact), intact HEK293T cells): 143 µM
EC50 ([1]; NanoBRET EC50 (lysed), lysed cells (digitonin)): 246 µM
tracer displacement [2]: displaced the tracer almost completely
cell permeability [2]: effective cell penetration
SMILES: O=C(Nc1ccc(S(=O)(=O)Nc2ccccn2)cc1)c1ccccc1 [AL257 (3)]

tracer displacement [2]: no activity
SMILES: CN(CCCCNS(=O)(=O)c1ccc(N)cc1)C(=O)c1cccs1 [AL266 (4)]

Tm-Shift hTRIM21 ([3]; 2 mM compound, 8 μM protein): 0.6 °C
tracer displacement [2]: ~ 40%
Tm-shift mTRIM21 ([4]; 2 mM compound, 8 μM protein): 0.4 °C
SMILES: CCNC1CCN(c2ccncc2)CC1 [Fragment Z2065616520]

SMILES: O=C(COC(F)F)N1CC2CCCC2C1 (centres unmarked) [Fragment Z2072621991]
SPR mTRIM21 (Response) (His-mTRIM21 PRYSPRY): 46.61
Tm-Shift hTRIM21 [3]: -0.2 °C
SPR hTRIM21 (Response) [5]: 28.49
Tm-shift mTRIM21 [4]: 0 °C

SPR mTRIM21 (Response) (His-mTRIM21 PRYSPRY; [8]): 58.83
Tm-Shift hTRIM21 ([3]; 2 mM compound, 8 μM protein): -0.1 °C
SPR hTRIM21 (Response) [5, 8]: 60.94
Tm-shift mTRIM21 ([4]; 2 mM compound, 8 μM protein): -0.5 °C
SMILES: O=C1CN(Cc2ccccc2)CC(=O)N1 [Fragment Z3220108246]

SMILES: Cc1ccc(C(=O)Nc2ccc(S(=O)(=O)O)c3cc(S(=O)(=O)O)cc(S(=O)(=O)O)c23)cc1NC(=O)c1cccc(NC(=O)Nc2cccc(C(=O)Nc3cc(C(=O)Nc4ccc(S(=O)(=O)O)c5cc(S(=O)(=O)O)cc(S(=O)(=O)O)c45)ccc3C)c2)c1 [suramin]
SPR response of reference (His-mTRIM21 PRYSPRY; suramin injected at 50 µM as reference, species not stated): 100 relative RU
Kd (TRIM21 [6]): ~10 µM
Kd (TRIM21 [7]): ~10 µM
ΔTm shift (TRIM21 PRY-SPRY domain): 2.3 °C
